Patent US12514859B2, “Pyrazole pyrimidine derivative and uses thereof” (Yissum Research Development Company of the Hebrew …, priority 2015, dated 2026)

Key:
[1] = test system: IRAK1/4; settings: 10 μM; cited from earlier work
[2] = test system: Wnt/β-catenin; test: β-catenin stabilization (Wnt pathway activation) in RKO cells (Western blot); assay type: cell-based; settings: 16 hours, Western blot
Protocol: (§1) Primary Screen in RKO cells for compounds having typical CKIα inhibitory activity (β-catenin and p53 stabilization and histone H2AX phosphorylation; see Elyada et al, Nature 2011 Feb. 17; 470(7334):409-13; Pribluda et al, Cancer Cell 2013 Aug. 12; 24(2):242-56). RKO colorectal cells were incubated with 10 μM of each of the compounds for 16 hours at 37° C. Cells were washed with PBS and cell pellets were incubated with ice cold protein lysis buffer containing protease inhibitor cocktail (1/200; Calbiochem) and phosphatase inhibitors (20 mM p-nitrophenyl phosphate (PNPP), 20 mM β-glycerophosphate and 300 nM okadaic acid). Western blot analysis was performed by means of standard techniques. Blots were incubated with antibodies detecting β-catenin (1/2,500; BD Transduction), p53 (DO-1&1801 hybridoma mix; dilution of 1:20 of supernatants from each), CKIα (C-19; 1/1,000; Santa Cruz Biotechnology) and phospho-histoneH2AX (S139; 1/1,000; Millipore). Secondary antibodies were HRP-linked goat anti-mouse, goat anti-rabbit and rabbit anti-goat antibodies (all 1/10,000; Jackson). Blots were developed using ECL (GE Healthcare).
(§2) Active compounds were further analyzed in a dose-response experiment (FIGS. 1A and 1B). Similar to the primary screen, RKO cells were incubated with descending concentrations of each of the active compounds for 16 hours at 37° C. Cell extract isolation and Western Blot analysis were similar to the primary screen.
(§3) Table 1 provides quantified information for compounds of the invention in activation of p53 and DNA damage response (DDR) and β-catenin stabilization as an indicator of Wnt pathway activation. p53 activation was determined according to the degree of protein stabilization in several Western blot assays (Western blot examples are shown in FIGS. 1A and 1B). […] In contrast, A35 started stabilizing p53 at […], with maximal stabilization at […] (FIG. 1A, upper right panel) and thus received an average value of +++ for p53 activation.

[3] = target: T1, IRAK1 (Homo sapiens, UniProt P51617); test: Kd measurements for the interaction with IRAK1; assay type: binding
T1 construct: RKO cells were incubated for 16 hours at 37° C. with the indicated concentrations of compounds; endogenous in cells; host or cells: RKO cells, stimulated with TNFα

[4] = test system: p53, DNA damage response (γH2AX); test: p53 and DNA damage response activation in RKO cells (Western blot, primary screen and dose response); assay type: cell-based; settings: 16 hours, Western blot, average value
Protocol: as §1, §2, §3

[5] = target: T1, IRAK1; test: IRAK1 inhibition in RKO cells treated with TNFα (Western blot); assay type: cell-based
Protocol: (§4) Cells were harvested and analyzed by Western blot. Blots were incubated with the following antibodies: Phospho-IRAK1 (Thr209), (A1074, AssayBiothechnology; 1/1,000), Phospho-IKKα/β (Ser176/180) (16A6, Cell Signaling; 1/1,000), IKKα (2682, cell signaling; 1/1,1000), IKK β (2370, cell signaling; 1/1,1000), Phospho-c-Jun (Ser 63) (9261, cell signaling; 1/1,1000), p53 (DO-1&1801 hybridoma mix; dilution of 1:20 of supernatants from each), CKIα (C-19; 1/1,000; Santa Cruz Biotechnology) and phospho-histoneH2AX (S139; 1/1,000; Millipore). Secondary antibodies were HRP-linked goat anti-mouse, goat anti-rabbit and rabbit anti-goat antibodies (all 1/10,000; Jackson). Inhibition of Phospho-IRAK1, Phospho-IKKα/β and Phospho-c-Jun indicate IRAK1 inhibition. p53 stabilization and phosphorylation of H2AX (γH2AX), a marker of DNA damage, indicative of CKIα kinase inhibition. CKIα protein levels serves as a loading control.
as §4, with “IRAK1 Inhibition with compounds of the invention. RKO cells were incubated for 16 hours at 37° C. with the indicated concentrations of compounds of the invention A51 (1 μM) and A14 (2 μM) (FIG. 10). At the indicated time points, RKO were treated with TNFα (100 units/ml). Cells” for “Cells”, “IKKβ” for “IKK β”, “Blots were developed using ECL (GE Healthcare). […] Also shown is” for “Inhibition of Phospho-IRAK1, Phospho-IKKα/β and Phospho-c-Jun indicate IRAK1 inhibition.”

[6] = test system: AML mice (MLL-AF9); test: MLL-AF9 acute myeloid leukemia (AML) mouse model; assay type: in vivo
Protocol: Generation of a mouse model of acute myeloid leukemia (AML) (FIG. 6) and treatment with the CKIα inhibitor A14 (FIGS. 7, 8 and 9) or A51 (FIGS. 11 and 12). To generate the MLL-AF9 Acute myeloid leukemia (AML) model, bone marrow (BM) cells from 10 week old wild type mouse were extracted and enriched for cKit expressing cells (EasySep #18757) and incubated overnight in RPMI supplemented with 15% FCS L-Glutamine, Pen/Strep (Biological Industries, Israel) and stem cell factor (SCF), IL-3, IL-6 and TPO (Peprotech). The culture was infected with MSCV-MLL-AF9-IRES-GFP retrovirus construct containing supernatant medium for 4 hours, then growth medium was added and infected cells were incubated at 37° C. for additional 24 h. The culture was then injected I.V. into sub lethally irradiated (500 rad) mice. Upon detectable steady increase of GFP expressing cells in the mice peripheral blood (checked by FACS analysis) and rise in leukocyte numbers and immature cells (detected by Wright-Giemsa stained blood films), mice were sacrificed and their BM was transferred (1st BMT) to sublethally irradiated WT hosts. Upon emergence of AML disease mice were sacrificed and 50,000 BM cells were transplanted (2nd BMT) into WT host mice. GFP expressing cells were monitored in the peripheral blood and upon detecting >10% GFP^+ in PB (day 11 after BMT) mice were treated with A14 inhibitor (FIG. 7A). A14 was administered by oral gavage once a day at a dose of 20 mg/kg for 3 days followed by 10 mg/kg/day for 6 more days. The inhibitor was dissolved in 1% methyl cellulose with 0.1% Tween 80 and 0.2% Poly-ethylene glycol (Vehicle). Control mice were treated with the vehicle only. Mice were monitored daily for cachexia, lethargy, and ruff coats, and moribund mice were sacrificed. For a single dose experiment (FIG. 11A) A51 was administered by oral gavage at a single dose of 20 mg/kg and mice were sacrificed 16 hours following treatment.
Complete blood counts. Peripheral venous blood was obtained from the mouse facial vein using standard techniques and analyzed using the auto hematology analyzer BC-2800 (Mindray) per manufacturer's instructions.
Single-dose treatment effect of a CKI inhibitor in AML mice and PD-L1 expression. AML mice were prepared by inoculating MLL-AF9 oncogene-transduced bone marrow cells to C57/BL6 mice. MLL-AF9 fusion represents one of a poor prognosis human AML induced by chromosomal translocation. 30 days after leukemia inoculation, the recipient mice have high white blood cells (WBC) counts (×10 higher than a normal mouse), and harbor >95% leukemia blasts in the bone marrow and 50% of the peripheral WBC in these mice are AML blasts. These mice have splenomegaly and their bones are pale and fragile due to the acute leukemia (FIG. 12).

[7] = oral single dose 20 mg/Kg, 16 hrs

T1 sequence (P51617 whole entry): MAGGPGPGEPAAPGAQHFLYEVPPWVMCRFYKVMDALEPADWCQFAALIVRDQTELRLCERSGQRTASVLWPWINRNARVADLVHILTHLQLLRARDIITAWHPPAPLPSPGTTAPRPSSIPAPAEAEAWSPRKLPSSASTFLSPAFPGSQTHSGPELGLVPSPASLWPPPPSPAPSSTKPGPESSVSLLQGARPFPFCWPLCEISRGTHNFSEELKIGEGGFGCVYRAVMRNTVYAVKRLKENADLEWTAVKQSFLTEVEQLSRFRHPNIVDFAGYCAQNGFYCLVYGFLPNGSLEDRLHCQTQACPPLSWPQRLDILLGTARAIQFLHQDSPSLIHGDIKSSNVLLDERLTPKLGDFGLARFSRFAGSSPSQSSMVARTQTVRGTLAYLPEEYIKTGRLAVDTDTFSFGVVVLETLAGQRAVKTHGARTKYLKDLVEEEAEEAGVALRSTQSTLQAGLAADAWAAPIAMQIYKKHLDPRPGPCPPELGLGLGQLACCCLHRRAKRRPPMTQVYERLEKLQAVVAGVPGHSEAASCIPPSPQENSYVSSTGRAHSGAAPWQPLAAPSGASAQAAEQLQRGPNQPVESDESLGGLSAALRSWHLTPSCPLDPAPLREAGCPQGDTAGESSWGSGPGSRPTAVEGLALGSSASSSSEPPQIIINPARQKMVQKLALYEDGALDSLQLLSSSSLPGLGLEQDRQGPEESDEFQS

Structure (SMILES)	inhibition of IRAK1/4 in cell lines [1] [%]	β-Catenin activity [2]	Kd [3] [nM]	DDR & p53 activity [4]	IRAK1 activation and activation of the IRAK1 target IKK (in words) ([5]; RKO cells, Western blot, A51 1 μM, A14 2 μM, 16 hours, TNFα 100 units/ml)	inhibition at 1 µM ([5]; RKO, read-out: inhibition of phospho-(active) IRAK1) [%]	leukemic spleen size (in words) [6, 7]	reduction of proportion of leukemic blasts (GFP+ cells) in the blood [6, 7] [%]	reduction of proportion of leukemic blasts (GFP+ cells) in the bone marrow [6, 7] [%]	total leukemia cells in the blood (in words) [6, 7]	bone colour (in words) ([6]; single dose 20 mg/Kg)
O=C(Nc1nc2ccccc2n1CCN1CCOCC1)c1cccc([N+](=O)[O-])c1 [Amgen's IRAK1-4 inhibitor]	70	–	–	–	–	–	–	–	–	–	–
Cn1ncc(-c2nc(N[C@H]3CC[C@H](N)CC3)ncc2Cl)c1CC1CC1 [Compound A51, (1R, 4R)—N^1-(5-chloro-4-(5-(cyclopropylmethyl)-1-methyl-1H-pyrazol-4-yl)pyrimidin-2-yl)cyclohexane-1,4-diamine]	–	+++ (+++ indicates maximal β-catenin or p53 stabilization at >2 μM)	2.9	++++ (++++ indicates maximal activation of p53 and DDR at >0.5 μM)	inhibition of IRAK1 activation	100	shrinking of the leukemic spleen	> 90	50	massive reduction	Opaque bones turned to normal color
